Values of other authors as cited in US8137734B2, “Preparation of controlled release skeletal muscle relaxant dosage forms” (Aptalis Pharmatech, Inc., priority 2008, dated 2012).

absorption (after oral administration): well absorbed
half-life (elimination): one to three
SMILES: CN(C)CCC=C1c2ccccc2C=Cc2ccccc21 [Cyclobenzaprine]
